Assay results: patent US12252524B2, “GIP/GLP1 co-agonist compounds” (Eli Lilly and Company, priority 2018, dated 2025)
Numbered stars: 1 amine (or outer) side, 2 acyl side, 3 side chain; on linkers, the order of the positions; unused ones are H or OH. Square brackets hold non-standard residues; d marks the D form. Side chains are listed from the residue outwards. Peptide text beside a SMILES is read from it. * marks the point of attachment. C20 diacid = O=C(O)CCCCCCCCCCCCCCCCCCC(=O)*; αMePhe(2-F) = C[C@](N)(Cc1ccccc1F)C(=O)O; γGlu = O=C(O)[C@H](CCC(=O)[*:2])N[*:1]; αMeL = CC(C)C[C@](C)(N)C(=O)O; AEEA = NCCOCCOCC(=O)O; Aib = CC(C)(N)C(=O)O

Key:
human Gcg receptor = target: T1, human Gcg receptor (Homo sapiens, UniProt P47871); assay: [125I]-Glucagon binding (SPA), human Gcg receptor; conditions: read-out: hGLcgR Ki, nM (SEM, n)
T1 construct: expressed in transfected cells; crude membranes
T1 sequence (P47871 26-477): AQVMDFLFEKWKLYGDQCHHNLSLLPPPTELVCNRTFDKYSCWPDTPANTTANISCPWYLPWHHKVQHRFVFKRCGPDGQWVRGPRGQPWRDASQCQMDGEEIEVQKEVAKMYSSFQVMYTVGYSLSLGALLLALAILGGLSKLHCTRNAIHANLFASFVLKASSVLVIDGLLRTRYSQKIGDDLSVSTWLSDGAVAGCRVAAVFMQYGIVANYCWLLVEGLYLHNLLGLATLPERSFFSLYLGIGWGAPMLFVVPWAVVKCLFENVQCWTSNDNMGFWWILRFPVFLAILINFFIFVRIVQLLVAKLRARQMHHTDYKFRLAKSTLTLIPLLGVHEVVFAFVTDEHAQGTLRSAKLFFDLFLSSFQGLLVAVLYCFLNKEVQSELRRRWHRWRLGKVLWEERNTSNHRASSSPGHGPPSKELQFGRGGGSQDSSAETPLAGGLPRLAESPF
Outline: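 Scintillation counts are taken after membranes and WGA beads incubate and settle for 12 hours at room temperature. Buffer is 25 mM HEPES, pH 7.4, with CaCl2, MgCl2, bacitracin and Tween-20. Ki values, from four-parameter IC50 fits, are geometric means over independent days.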

human GIP receptor = target: T2, human GIP receptor (Homo sapiens, UniProt P48546); assay: [125I]-GIP binding (SPA), human GIP receptor; conditions: read-out: hGIPR Ki, nM (SEM, n)
T2 construct: expressed in transfected cells; crude membranes
T2 sequence (P48546 22-466): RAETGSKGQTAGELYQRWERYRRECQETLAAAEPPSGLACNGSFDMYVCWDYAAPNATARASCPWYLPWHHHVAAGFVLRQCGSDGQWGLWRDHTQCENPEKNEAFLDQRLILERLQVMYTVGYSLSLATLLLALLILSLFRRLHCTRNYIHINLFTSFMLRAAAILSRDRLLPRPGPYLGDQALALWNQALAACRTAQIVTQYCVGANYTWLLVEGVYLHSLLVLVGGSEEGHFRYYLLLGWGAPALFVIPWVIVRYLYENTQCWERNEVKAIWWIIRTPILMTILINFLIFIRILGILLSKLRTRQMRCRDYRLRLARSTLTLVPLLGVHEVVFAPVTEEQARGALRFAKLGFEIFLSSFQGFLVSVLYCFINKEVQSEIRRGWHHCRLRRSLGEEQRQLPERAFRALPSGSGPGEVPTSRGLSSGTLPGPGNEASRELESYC

[1] = target: human GLP-1 receptor (GLP-1R) (Homo sapiens, UniProt P43220); assay: cAMP pharmacological functional assay in presence of casein, hGLP-1R; format: cell-based; conditions: HEK293 cells expressing hGLP-1R, 0.1% Casein, geometric mean; read-out: hGLP1R cAMP Rel EC50 nM (SEM, n)
human GLP-1 receptor (GLP-1R), sequence (P43220 24-463): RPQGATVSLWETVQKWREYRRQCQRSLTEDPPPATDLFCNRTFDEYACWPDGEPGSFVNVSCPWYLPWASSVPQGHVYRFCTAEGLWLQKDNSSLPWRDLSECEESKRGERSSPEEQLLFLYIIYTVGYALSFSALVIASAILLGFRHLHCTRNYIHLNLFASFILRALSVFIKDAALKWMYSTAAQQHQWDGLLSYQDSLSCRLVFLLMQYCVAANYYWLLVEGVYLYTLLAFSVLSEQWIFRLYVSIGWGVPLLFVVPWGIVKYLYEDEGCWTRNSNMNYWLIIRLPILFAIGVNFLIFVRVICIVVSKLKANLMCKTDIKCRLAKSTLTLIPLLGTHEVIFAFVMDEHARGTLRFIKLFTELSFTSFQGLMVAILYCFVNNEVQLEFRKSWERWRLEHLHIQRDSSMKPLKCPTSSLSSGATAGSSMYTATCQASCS

[2] = target: T3, gastric inhibitory peptide receptor (GIPR) (Homo sapiens, UniProt P48546); assay: cAMP pharmacological functional assay in presence of casein, hGIPR; format: cell-based; conditions: HEK293 cells expressing hGIPR, 0.1% Casein, geometric mean; read-out: hGIPR cAMP Rel EC50 nM (SEM, n)
T3 sequence (P48546 22-466): T2 sequence (P48546 22-466)

human GLP-1R = human GLP-1R (Homo sapiens, UniProt P43220); assay: [125I]-GLP-1 binding (SPA), human GLP-1 receptor; set-up: expressed in transfected cells; crude membranes; conditions: read-out: hGLP1R Ki, (nM) (SEM, n)
human GLP-1R, sequence (P43220 24-463): as above
Outline: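 Assay buffer: HEPES 25 mM, pH 7.4, CaCl2 2.5 mM, MgCl2 1 mM, with EDTA-free protease inhibitors. Receptor came from crude cell membranes prepared by homogenization and centrifugation at 4° C. IC50s came from four-parameter fits (maximum, minimum, IC50, Hill slope) and were expressed as Ki geometric means with SEM.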

## CC[C@H](C)[C@H](NC(=O)[C@H](CC(C)C)NC(=O)[C@H](Cc1ccc(O)cc1)NC(=O)[C@@H](CCC(=O)O)NC(=O)[C@@H](NC(=O)[C@H](Cc1ccccc1)NC(=O)[C@H](CCC(=O)O)NC(=O)C(C)(C)NC(=O)[C@H](CCC(N)=O)NC(=O)[C@H](C)NC(=O)[C@H](CCCCNC(=O)COCCOCCNC(=O)COCCOCCNC(=O)CC[C@H](NC(=O)CCCCCCCCCCCCCCCCCCC(=O)O)C(=O)O)NC(=O)[C@H](Cc1c[nH]cn1)NC(=O)[C@H](CC(=O)O)NC(=O)[C@H](CC(C)C)NC(=O)[C@](C)(CC(C)C)NC(=O)[C@@H](NC(=O)[C@H](CO)NC(=O)[C@H](Cc1ccc(O)cc1)NC(=O)[C@H](CC(=O)O)NC(=O)[C@H](CO)NC(=O)[C@@H](NC(=O)[C@](C)(Cc1ccccc1F)NC(=O)[C@@H](NC(=O)CNC(=O)[C@H](CCC(=O)O)NC(=O)C(C)(C)NC(=O)[C@@H](N)Cc1ccc(O)cc1)[C@@H](C)O)[C@@H](C)O)[C@@H](C)CC)[C@@H](C)CC)C(=O)N[C@@H](CCC(=O)O)C(=O)NCC(=O)NCC(=O)N1CCC[C@H]1C(=O)N[C@@H](CO)C(=O)N[C@@H](CO)C(=O)NCC(=O)N[C@@H](C)C(=O)N1CCC[C@H]1C(=O)N1CCC[C@H]1C(=O)N1CCC[C@H]1C(=O)N[C@@H](CO)C(N)=O [Example 230] (H-Y[Aib]EGT[αMePhe(2-F)]TSDYSI[αMeL]LDHK([AEEA-AEEA-γGlu-C20 diacid])AQ[Aib]EFI[dE]YLIEGGPSSGAPPPS-NH2)
Human Gcg receptor
  Ki: 494 nM
Human GIP receptor
  Ki: 0.042 nM
[1]
  EC50: 0.0491 nM
[2]
  EC50: 0.0431 nM
Human GLP-1R
  Ki: 4.68 nM

## CC[C@H](C)[C@H](NC(=O)[C@H](CC(C)C)NC(=O)[C@H](Cc1ccc(O)cc1)NC(=O)[C@@H](CCC(=O)O)NC(=O)[C@@H](NC(=O)[C@H](Cc1ccccc1)NC(=O)[C@H](CCC(=O)O)NC(=O)C(C)(C)NC(=O)[C@H](CCC(N)=O)NC(=O)[C@H](C)NC(=O)[C@H](CCCCNC(=O)COCCOCCNC(=O)COCCOCCNC(=O)CC[C@H](NC(=O)CCCCCCCCCCCCCCCCC(=O)O)C(=O)O)NC(=O)[C@H](CCCCN)NC(=O)[C@H](CC(=O)O)NC(=O)[C@H](CC(C)C)NC(=O)C(C)(CC(C)C)NC(=O)[C@@H](NC(=O)[C@H](CO)NC(=O)[C@H](Cc1ccc(O)cc1)NC(=O)[C@H](CC(=O)O)NC(=O)[C@H](CO)NC(=O)[C@@H](NC(=O)C(C)(Cc1ccccc1F)NC(=O)[C@@H](NC(=O)CNC(=O)[C@H](CCC(=O)O)NC(=O)C(C)(C)NC(=O)[C@@H](N)Cc1ccc(O)cc1)[C@@H](C)O)[C@@H](C)O)[C@@H](C)CC)[C@@H](C)CC)C(=O)N[C@@H](CCC(=O)O)C(=O)NCC(=O)NCC(=O)N1CCC[C@H]1C(=O)N[C@@H](CO)C(=O)N[C@@H](CO)C(=O)NCC(=O)N[C@@H](C)C(=O)N1CCC[C@H]1C(=O)N1CCC[C@H]1C(=O)N1CCC[C@H]1C(=O)N[C@@H](CO)C(N)=O (stereo partly shown) [Example 231]
Human Gcg receptor
  Ki: 440 nM
Human GIP receptor
  Ki: 0.0394 nM
[1]
  EC50: 0.0611 nM
[2]
  EC50: 0.0253 nM
Human GLP-1R
  Ki: 3.03 nM
